Laboratory results: patent US6699894B1, “Methods for treatment of inflammatory bowel disease” (OSI Pharmaceuticals, Inc., priority 2001, dated 2004)
Structures can show the parent of a compound that is named as a salt. Where two headings read alike, the source gives them in different places. Values belong to the compound of their own block, whether it stands above or below them.

Columns and labels:
[1] = molecular target: T1, GST-cGB-PDE5 fusion protein (Homo sapiens, UniProt O76074); experiment: cGMP binding assay with GST-cGB-PDE5 fusion protein; settings: for competition with cGMP binding at high concentration: test substance 100 μM vs cGMP 2 μM
T1 construct: made in house; host or cells: E. coli BL21 (DE3)
Method: 5′-3′, Inc. kits for total RNA followed by oligo (dT) column purification of mRNA are used with HT-29 cells. […] It is then cloned into pGEX-5X-3 glutathione-S-transferase (GST) fusion vector (Pharmacia Biotech) with tac promoter, and EcoRI and XhoI cut sites. The fusion vector is then transfected into E. Coli BL21 (DE3) bacteria (Invitrogen). The transfected BL21 bacteria is grown to log phase, and then IPTG is added as an inducer. The induction is carried at 20° C. for 24 hrs. The bacteria are harvested and lysed. The soluble cell lysate is incubated with GSH conjugated Sepharose 4B (GSH-Sepharose 4B). The GST-cGB-PDE5 fusion protein can bind to the GSH-Sepharose beads, and the other proteins are washed off from beads with excessive cold PBS.
Then, the mixture is transferred to Brandel MB-24 cell harvester with GF/B as the filter membrane followed by 2 washes with 10 mL of cold 5 mM potassium buffer(pH 6.8). The membranes are then cut out and transferred to scintillation vials followed by the addition of 1 mL of H2O and 6 mL of Ready Safe™ liquid scintillation cocktail to each vial. The vials are counted on a Beckman LS 6500 scintillation counter.
The quenching by filter membrane or other debris are also calibrated.

rats [2] = experiment: Seven-day dose-range finding study in rats; format: in vivo; settings: 7 days
dogs [3] = experiment: Acute and seven-dose toxicity in dogs (capsules); settings: dog, in vivo
Method: Therefore, these dogs were subsequently administered seven consecutive doses of 1000 mg/kg/day.

rats [4] = experiment: 91-day long-term safety assessment study in rats; format: in vivo
Source text: These changes were not associated with any gross clinical abnormality.

rats [5] = experiment: 28-day study in rats; format: in vivo
Method: A 28-day study in rats was also carried out at 0, 50, 500 and 2000 mg/kg/day.

patients = experiment: Single, escalating dose human clinical safety trial; format: in vivo; settings: oral, 50 mg BID, 100 mg BID, 200 mg BID and 400 mg BID
PDE 5 = PDE 5 (Homo sapiens, UniProt O76074); experiment: Competitive binding (with cGMP) to PDE5
PDE1 = experiment: PDE inhibition: PDE1; format: biochemical; settings: similar protocols
PDE4 = experiment: PDE inhibition: PDE4; format: biochemical; settings: similar protocols
dogs [6] = experiment: 91-day oral study in dogs; format: in vivo
rats [7] = experiment: Acute toxicity study in rats; settings: rat, in vivo
dogs with IBD = experiment: Efficacy trial in dogs with IBD; format: in vivo
Source text: IBD in humans is quite similar to IBD in dogs. […] In fact, the IBD treatments used in dogs are very similar to those used in humans, and the success rates are similarly disappointing. The number of dogs with IBD is estimated to be in the millions in the U.S. Feline IBD is also quite common.
The pre-drug history and results achieved with the drug in each dog are as follows: […]

native bovine PDE5 = native bovine PDE5 (Bos taurus, UniProt Q28156); settings: read-out: Kd of cGMP binding to native bovine PDE5; cited from earlier work
[8] = 28 days, 50, 500 and 2000 mg/kg/day
[9] = 91 days, highest dose group (300 mg/kg/day)

competition with cGMP in binding of GST-cGB-PDE5 ([1]; 3H-cGMP 2 μM, 22° C., 1 hour): did not compete
SMILES: CCCCOC1C2OP(=O)(O)OCC2OC1n1cnc2c(N)ncnc21 (stereo not shown) [2′-O-butyl-cAMP]

competition with cGMP in binding of GST-cGB-PDE5 ([1]; 3H-cGMP 2 μM, 22° C., 1 hour): did not compete
SMILES: CCCCOC1C2OP(=O)(O)OCC2OC1n1cnc2c(=O)[nH]c(N)nc21 (stereo not shown) [2′-O-butyl-cGMP]

SMILES: Nc1ncnc2c1ncn2[C@@H]1O[C@@H]2COP(=O)(O)O[C@H]2[C@H]1O [Cyclic AMP]
competition with cGMP in binding of GST-cGB-PDE5 [1]: did not compete

competition with cGMP binding at high concentration [1]: can partially compete
SMILES: O=c1[nH]cnc2c1ncn2[C@@H]1O[C@@H]2COP(=O)(O)O[C@H]2[C@H]1O [Cyclic IMP]

competition with cGMP binding at high concentration [1]: can partially compete
SMILES: Nc1nc2c(nc(Br)n2[C@@H]2O[C@@H]3COP(=O)(O)O[C@H]3[C@H]2O)c(=O)[nH]1 [Example 8-bromo-cGMP, 8-bromo-cGMP]

SMILES: CC1=C(CC(=O)NCc2ccccc2)c2cc(F)ccc2/C1=C\c1ccncc1 [Example 38, (Z)-5-Fluoro-2-Methyl-(4-Pyridylidene)-3-(N-Benzyl)Indenylacetamide Hydrochloride]
signs of toxicity (rats [2]; 50 mg/kg/day): no observable signs of toxicity | treatment-related effects (rats [2]; 500 mg/kg/day): increase in absolute and relative liver weights in female rats | treatment-related effects (rats [2]; 2000 mg/kg/day): labored breathing and/or abnormal respiratory sounds, decreased weights gains and food consumption in male rats, and increased liver weights in female rats | hematology, blood chemistry, microscopic pathology (rats [2]; any dose level (50, 500, 2000 mg/kg/day)): No hematological or blood chemistry changes nor any microscopic pathology changes | signs of toxicity (dogs [3]; 1000 mg/kg): no signs of toxicity | signs of drug-related effects (dogs [3]; 1000 mg/kg/day): At no time in either dosing phase were any obvious signs of drug-related effects observed | clinical biochemistry and hematology (rats [4]; 91 days): no changes in clinical biochemistry and hematology were evident | microscopic finding, follicular cells (rats [4]; 91 days, 500 mg/kg/day): follicular cell hypertrophy | microscopic finding, kidneys (rats [4]; 91 days, 200 and 500 mg/kg/day): increase in accumulation of hyalin droplets in the kidneys | microscopic finding, liver (rats [4]; 91 days, 200 and 500 mg/kg/day): slight hepatocellular hypertrophy | liver and thyroid/parathyroid weights (rats [4]; 91 days, males and females at 200 and 500 mg/kg/day): dose-related trend to increased liver and thyroid/parathyroid weights | toxicological effects overall (rats [4]; oral, 91 consecutive days, 50, 200 and 500 mg/kg/day): did not produce any major toxicological effects | macroscopic tissue changes at necropsy (rats [5]; 28 days): No macroscopic tissue changes | liver weights (rats [5]; 28 days, 2000 mg/kg/day): statistically significant increase | thyroid weights (rats [5]; 28 days, 2000 mg/kg/day): statistically significant increases | body weight changes, ophthalmoscopic examinations, hematological and blood chemistry values and urinalysis (rats [5]; [8]): unremarkable | clinical observations (rats [5]; [8]): no abnormal clinical observations | liver and thyroid weights at the lower doses (rats [5]; 28 days, 50 and 500 mg/kg/day): not statistically significant | histopathological evaluation of tissues (rats [5]; 28 days, generally limited to a small number of animals at 2000 mg/kg/day, one female at 500 mg/kg/day): traces of follicular cell hypertrophy, increased numbers of mitotic figures (suggestive of possible cell proliferation) in the thyroid gland and mild centrilobular hypertrophy in the liver | side effects (patients): no significant side effects at any dose | competitive (with cGMP) binding to PDE 5 (PDE 5): does competitively (with cGMP) bind to PDE 5 | IC50 (PDE1): 3 µM | binding to the cGMP binding sites of GST-cGB-PDE5 / PDE5 [1]: does not bind to the cGMP-binding site of PDE5 | IC50 (PDE4): 6 µM | tolerability (dogs [6]; 91 days): well tolerated | feces observation (dogs [6]; 91 days, 150 and 300 mg/kg/day): Orange discoloration of the feces | microscopic alterations of liver (dogs [6]; 91 days, highest dose group): no microscopic alterations | body weights (dogs [6]; [9]): Slightly lowered body weights | liver weights (dogs [6]; [9]): increased liver weights | toxicological effects overall (dogs [6]; oral, 91 consecutive days, 50, 150 and 300 mg/kg/day): no toxicological effects | route of elimination (suggested by feces colour) (dogs [6]; oral, 91 days): most of Compound 38 was being eliminated via the feces | acute toxicity on a single-dose basis (rats [7]): not acutely toxic | body weight gain (rats [7]; ip, 1000 mg/kg): reduced body weight gain | necropsy finding (rats [7]; ip, 1000 mg/kg): mesenteric adhesions seen in some animals | body weight gains (rats [7]; po, 2000 mg/kg): slightly reduced | body weight regained, Dog #1 (dogs with IBD; Dog #1, 12 weeks of 800 mg BID): at least 13 lbs. | histopathological change, Dog #1 (dogs with IBD; Dog #1, 12 weeks of 800 mg BID): significant histopathological improvement | body weight, Dog #1 (dogs with IBD; Dog #1, Month 8 (start), after 12 weeks of treatment, 46 lbs at Month 3 (middle)): 60 lbs | small intestine histopathology after treatment, Dog #1 (dogs with IBD; Dog #1, after 12 weeks of treatment, FIGS. 2 and 4): closely mimics normal canine small intestinal tissue | blood protein levels, Dog #2 (dogs with IBD; Dog #2, after 7 weeks 400 mg BID): returned to normal | blood protein levels, Dog #3 (dogs with IBD; Dog #3, 400 mg BID): gradually returned to within normal limits | stool, Dog #4 (dogs with IBD; Dog #4, after 7 weeks 800 mg BID, owner report): normal size stool with no mucus | outcome, Dog #6 (dogs with IBD; after 7 weeks 800 mg BID, late stage abdominal neoplastic disease discovered post-mortem): Euthanized | clinical status, Dog #5 (dogs with IBD; chronic IBD, 7 weeks 800 mg BID without conventional IBD treatments): significantly improved and completely normal | clinical status, Dog #4 (dogs with IBD; chronic IBD, conventional therapy withdrawn, 7 weeks 800 mg BID): completely clinically normal with no signs of IBD | stools, Dog #7 (dogs with IBD; chronic IBD, tylosin stopped, after one week on drug, then withdrawn by owner): normal stools began to be formed | clinical status, Dog #2 (dogs with IBD; moderate IBD (plasmacytic enteritis), two weeks conventional therapy, then 7 weeks 400 mg BID alone): Clinically normal | clinical status, Dog #3 (dogs with IBD; protein-losing enteropathy with IBD, 7 weeks 400 mg BID with intermittent metronidazole, no prednisone): clinically normal | clinical status in first 30 days, Dog #6 (dogs with IBD; severe IBD, conventional treatment withdrawn, 800 mg BID, first 30 days, owner report): playful, active and clinically normal | clinical status, Dog #1 (dogs with IBD; severe lymphoplasmacytic enteritis, 6 weeks conventional therapy plus 800 mg BID, then 6 weeks 800 mg BID alone): became clinically normal

SMILES: O=C([O-])C1CCN(c2nc(NCc3ccc4c(c3)OCO4)c3cc(Cl)ccc3n2)CC1.[Na+] [Example E4021]
competition with cGMP in binding of GST-cGB-PDE5 ([1]; 3H-cGMP 2 μM, 22° C., 1 hour): None of the PDE5 inhibitors showed any competition with cGMP

SMILES: CSc1ccc(/C=C2/C(C)=C(CC(=O)O)c3cc(F)ccc32)cc1 [Sulindac sulfide, sulindac sulfide]
competition with cGMP in binding of GST-cGB-PDE5 ([1]; 3H-cGMP 2 μM, 22° C., 1 hour): None of the PDE5 inhibitors showed any competition with cGMP

competition with cGMP in binding of GST-cGB-PDE5 ([1]; 3H-cGMP 2 μM, 22° C., 1 hour): did not compete
SMILES: Nc1ccn([C@@H]2O[C@@H]3COP(=O)(O)O[C@H]3[C@H]2O)c(=O)n1 [cCMP]

SMILES: Nc1nc2c(ncn2[C@@H]2O[C@@H]3COP(=O)(O)O[C@H]3[C@H]2O)c(=O)[nH]1 [cGMP, cyclic 3′,5′-guanosine monophosphate]
Kd (native bovine PDE5): 1.3 µM | binding to the cGMP binding sites of GST-cGB-PDE5 / PDE5 [1]: specifically bound | Kd ([1]; read-out: Kd of cGMP binding to GST-cGB-PDE5, two cGMP binding sites): 1.6 ± 0.2 µM

competition with cGMP in binding of GST-cGB-PDE5 ([1]; 3H-cGMP 2 μM, 22° C., 1 hour): did not compete
SMILES: O=c1ccn([C@@H]2O[C@@H]3COP(=O)(O)O[C@H]3[C@H]2O)c(=O)[nH]1 [cUMP]

SMILES: CC1=C(CC(=O)O)c2cc(F)ccc2/C1=C\c1ccc(S(C)(=O)=O)cc1 [exisulind]
competition with cGMP in binding of GST-cGB-PDE5 ([1]; 3H-cGMP 2 μM, 22° C., 1 hour): None of the PDE5 inhibitors showed any competition with cGMP

SMILES: CCCOc1ccccc1-c1nc2nn[nH]c2c(=O)[nH]1 [zaprinast]
competition with cGMP in binding of GST-cGB-PDE5 ([1]; 3H-cGMP 2 μM, 22° C., 1 hour): None of the PDE5 inhibitors showed any competition with cGMP
